In patent publication US20160168540A1, “COMPOSITION FOR MAINTAINING PLATELET FUNCTION” (KYOTO UNIVERSITY, priority 2013, published 2016) one finds IC50 data, which are given here for 41 compounds.

The target in this assay is T1, TACE (ADAM17) (Homo sapiens, UniProt P78536).
T1 construct: made in house; host or cells: mammalian cells or insect cells
Description: TACE (ADAM17) inhibition test. The assay is classed as biochemical. Particulars: fluorescent synthetic substrate, 37° C. for 1.5 hours; read-out: TACE IC50. From the text: The nucleotide sequence of TACE has been reported by Moss et al. (Moss, M. L. et al., Nature 1997, vol. 385, pp. 733-736). Based on this information, the cDNA of TACE was obtained according to the prescribed method from THP-1 cells or the like, and then incorporated the cDNA into an expression vector. Next, this vector was transformed into mammalian cells or insect cells, and TACE protein was expressed. The TACE protein was isolated, and used as an enzyme. Further, a fluorescent synthetic substrate Nma(N-methylanthranilic acid)-Leu-Ala-Gln-Ala-Val-Arg-Ser-Ser-Lys(Dnp(dinitrophenyl))-D-Arg-NH2 including the TACE-cleaved sequence of a membrane-bound TNF was used as a substrate. The enzyme reaction was carried out by adding 1.8 μL of a solution of the test substance to 90 μL of a fluorescent synthetic substrate prepared with an assay buffer B (50 mM tris-hydrochloric acid buffer (pH 7.5) including 200 mM sodium chloride, 5 mM calcium chloride, 10 μM zinc sulfate, and 0.05% PLURONIC F-68), then mixing 90 μL of a TACE enzyme solution prepared with an assay buffer A (50 mM tris-hydrochloric acid buffer (pH 7.5) including 200 mM sodium chloride, 5 mM calcium chloride, 10 μM zinc sulfate, and 2 mg/mL bovine serum albumin) and reacting at 37° C. for 1.5 hours. Enzyme activity was then determined by measuring with a fluorescence intensity meter (Labsystems, Fluoroskan Ascent) at an excitation wavelength of 355 nm and a measurement wavelength of 460 nm. The 50% inhibitory concentration (IC50) of the test substances was calculated by comparing enzyme activity in the presence and the absence of the test substance to determine the inhibition rate. Further, test substances having an IC50 strength of less than 100 nM were evaluated as “A”, and test substances having an IC50 strength of 100 nM or more were evaluated as “B”.

T1 sequence (P78536 215-824): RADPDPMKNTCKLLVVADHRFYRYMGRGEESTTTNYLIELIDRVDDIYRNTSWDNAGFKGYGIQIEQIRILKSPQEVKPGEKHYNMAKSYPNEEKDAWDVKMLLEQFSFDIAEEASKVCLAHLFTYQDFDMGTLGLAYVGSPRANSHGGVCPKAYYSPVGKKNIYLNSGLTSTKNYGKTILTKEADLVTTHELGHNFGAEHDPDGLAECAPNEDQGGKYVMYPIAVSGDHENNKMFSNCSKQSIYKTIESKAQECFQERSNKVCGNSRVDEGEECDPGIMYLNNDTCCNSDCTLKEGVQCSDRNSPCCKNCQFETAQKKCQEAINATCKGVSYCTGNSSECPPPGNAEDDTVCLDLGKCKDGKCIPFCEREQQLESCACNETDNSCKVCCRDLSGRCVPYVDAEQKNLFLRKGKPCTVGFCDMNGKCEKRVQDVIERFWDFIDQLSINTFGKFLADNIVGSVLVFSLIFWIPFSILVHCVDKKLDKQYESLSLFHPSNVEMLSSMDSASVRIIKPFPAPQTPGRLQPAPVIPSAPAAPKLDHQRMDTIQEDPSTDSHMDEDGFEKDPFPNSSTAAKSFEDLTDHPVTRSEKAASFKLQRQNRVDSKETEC

With `Cc1cccn(CC2(c3ccc(C#CC(C)(C)C)cc3)NC(=O)NC2=O)c1=O` (racemic) [Compound I-33, 5-[4-(3,3-dimethylbut-1-yn-1-yl)phenyl]-5-[(3-methyl-2-oxopyridin-1(2H)-yl)methyl]imidazolidine-2,4-dione], the IC50 (as a rule, the concentration at which inhibition is half-maximal) was under 0.1 µM.
The value for `Cc1ccc(Oc2ccc(C3(Cn4cccc(C)c4=O)NC(=O)NC3=O)cc2)cc1` (racemic) [Compound I-34, 5-[(3-methyl-2-oxopyridin-1(2H)-yl)methyl]-5-[4-(p-tolyloxy)phenyl]imidazolidine-2,4-dione] was under 0.1 µM; that for `Cc1ccccc1Oc1ccc(C2(Cn3cccc(C)c3=O)NC(=O)NC2=O)cc1` (racemic) [Compound I-35, 5-[(3-methyl-2-oxopyridin-1(2H)-yl)methyl]-5-[4-(o-tolyloxy)phenyl]imidazolidine-2,4-dione] was under 0.1 µM.
`Cc1cccn(CC2(c3ccc(OC4C=CCCC4)cc3)NC(=O)NC2=O)c1=O` (racemic) [Compound I-36, 5-[4-(cyclohex-2-en-1-yloxy)phenyl]-5-[(3-methyl-2-oxopyridin-1(2H)-yl)methyl]imidazolidine-2,4-dione]: the half-inhibitory concentration (IC50) was under 0.1 µM.
With `Cc1cccn(CC2(c3ccc(OC4CCCCC4)cc3)NC(=O)NC2=O)c1=O` (racemic) [Compound I-37, 5-[4-(cyclohexyloxy)phenyl]-5-[(3-methyl-2-oxopyridin-1(2H)-yl)methyl]imidazolidine-2,4-dione], the IC50 is under 0.1 µM.
`Cc1cc(C2(Cn3cccc(C)c3=O)NC(=O)NC2=O)ccc1OC1CCCC1` (racemic) [Compound I-39, 5-[4-(cyclopentyloxy)-3-methylphenyl]-5-[(3-methyl-2-oxopyridin-1(2H)-yl)methyl]imidazolidine-2,4-dione]: the IC50 was under 0.1 µM.
In the case of `Cc1cccn(CC2(c3ccc(Cc4ccccc4)cc3)NC(=O)NC2=O)c1=O` (racemic) [Compound I-40, 5-(4-benzylphenyl)-5-[(3-methyl-2-oxopyridin-1(2H)-yl)methyl]imidazolidine-2,4-dione], the IC50 was under 0.1 µM.
Take `Cc1cccn(CC2(c3ccc(Cc4ccc(F)cc4)cc3)NC(=O)NC2=O)c1=O` (racemic) [Compound I-41, 5-[4-(4-fluorobenzyl)phenyl]-5-[(3-methyl-2-oxopyridin-1(2H)-yl)methyl]imidazolidine-2,4-dione]: the IC50 was under 0.1 µM.
The value for `Cc1cccn(CC2(c3ccc(-c4nn[nH]n4)cc3)NC(=O)NC2=O)c1=O` (racemic) [Compound I-42, 5-[4-(2H-tetrazol-5-yl)phenyl]-5-[(3-methyl-2-oxopyridin-1(2H)-yl)methyl]imidazolidine-2,4-dione] was under 0.1 µM.
On to `C=Cc1ccc(C2(Cn3cccc(C)c3=O)NC(=O)NC2=O)cc1` (racemic) [Compound I-43, 5-[(3-methyl-2-oxopyridin-1(2H)-yl)methyl]-5-(4-vinylphenyl)imidazolidine-2,4-dione], for which the IC50 is under 0.1 µM.
Take `Cc1cccn(CC2(c3cc(F)c(F)c(F)c3)NC(=O)NC2=O)c1=O` (racemic) [Compound I-44, 5-[(3-methyl-2-oxopyridin-1(2H)-yl)methyl]-5-(3,4,5-trifluorophenyl)imidazolidine-2,4-dione]: the IC50 is under 0.1 µM.
The value for `CCCc1ccc(C2(Cn3cccc(C)c3=O)NC(=O)NC2=O)cc1` (racemic) [Compound I-45, 5-[(3-methyl-2-oxopyridin-1(2H)-yl)methyl]-5-(4-propylphenyl)imidazolidine-2,4-dione] was under 0.1 µM; that for `O=C1NC(=O)C(Cn2ccccc2=O)(c2ccccc2)N1` (racemic) [Compound I-46, 5-[(2-oxopyridin-1(2H)-yl)methyl]-5-phenylimidazolidine-2,4-dione] was under 0.1 µM.
Consider `COc1ccc(C2(Cn3ccccc3=O)NC(=O)NC2=O)cc1` (racemic) [Compound I-47, 5-(4-methoxyphenyl)-5-[(2-oxopyridin-1(2H)-yl)methyl]imidazolidine-2,4-dione], for which the IC50 was under 0.1 µM.
In the case of `O=C1NC(=O)C(Cn2cccc(F)c2=O)(c2ccc(F)cc2)N1` (racemic) [Compound I-48, 5-[(3-fluoro-2-oxopyridin-1(2H)-yl)methyl]-5-(4-fluorophenyl)-imidazolidine-2,4-dione], the IC50 was under 0.1 µM.
For the compound `O=C1NC(=O)C(Cn2cccc(F)c2=O)(c2ccc(-c3ccccc3)cc2)N1` (racemic) [Compound I-49, 5-([1,1′-biphenyl]-4-yl)-5-[(3-fluoro-2-oxopyridin-1(2H)-yl)methyl]imidazolidine-2,4-dione], the 50% inhibitory concentration (IC50) is under 0.1 µM.
For `O=C1NC(=O)C(Cn2cccc(Cl)c2=O)(c2ccccc2)N1` (racemic) [Compound I-50, 5-[(3-chloro-2-oxopyridin-1(2H)-yl)methyl]-5-phenylimidazolidine-2,4-dione], the IC50 was under 0.1 µM.
As for `O=C1NC(=O)C(Cn2cccc(Cl)c2=O)(c2cc3ccccc3o2)N1` (racemic) [Compound I-51, 5-(benzofuran-2-yl)-5-[(3-chloro-2-oxopyridin-1(2H)-yl)methyl]imidazolidine-2,4-dione], the IC50 is under 0.1 µM.
As to `COc1ccc(C2(Cn3cccc(Br)c3=O)NC(=O)NC2=O)cc1` (racemic) [Compound I-52, 5-[(3-bromo-2-oxopyridin-1(2H)-yl)methyl]-5-(4-methoxyphenyl)imidazolidine-2,4-dione], the IC50 was under 0.1 µM.
As to `CCc1cccn(CC2(c3ccc(OC)cc3)NC(=O)NC2=O)c1=O` (racemic) [Compound I-53, 5-[(3-ethyl-2-oxopyridin-1(2H)-yl)methyl]-5-(4-methoxyphenyl)imidazolidine-2,4-dione], the IC50 was at least 0.1 µM.
The value for `Cc1cccn(CC2(c3cccc(O)c3)NC(=O)NC2=O)c1=O` (racemic) [Compound I-54, 5-(3-hydroxyphenyl)-5-[(3-methyl-2-oxopyridin-1(2H)-yl)methyl]imidazolidine-2,4-dione] was at least 0.1 µM; that for `Cc1cccn(CC2(c3ccncc3)NC(=O)NC2=O)c1=O` (racemic) [Compound I-55] was under 0.1 µM.
Under `Cc1cccn(CC2(c3ccc4ccccc4c3)NC(=O)NC2=O)c1=O` (racemic) [Compound I-56] stands under 0.1 µM; under `Cc1cccn(CC2(c3cccc(Br)c3)NC(=O)NC2=O)c1=O` (racemic) [Compound I-57], under 0.1 µM; under `Cc1cccn(CC2(c3cccc(OCc4ccccc4)c3)NC(=O)NC2=O)c1=O` (racemic) [Compound I-58], under 0.1 µM.
In the case of `Cc1cccn(CC2(c3ccc4c(c3)OCCO4)NC(=O)NC2=O)c1=O` (racemic) [Compound I-59], the IC50 was under 0.1 µM.
Under `COc1ccccc1C1(Cn2cccc(C)c2=O)NC(=O)NC1=O` (racemic) [Compound I-60] stands at least 0.1 µM; under `Cc1cccn(CC2(c3ccc(F)cc3F)NC(=O)NC2=O)c1=O` (racemic) [Compound I-61], at least 0.1 µM; under `Cc1cccn(CC2(c3cccc(-c4cccnc4)c3)NC(=O)NC2=O)c1=O` (racemic) [Compound I-62], under 0.1 µM.
Under `Cc1cccn(CC2(c3cccc(C#CC(C)(C)C)c3)NC(=O)NC2=O)c1=O` (racemic) [Compound I-63] stands at least 0.1 µM.
Take `Cc1cccn(CC2(c3ccc(OCc4ccccc4)cc3)NC(=O)NC2=O)c1=O` (racemic) [Compound I-64]: the IC50 is under 0.1 µM.
The value for `Cc1cccn(CC2(c3ccc4c(c3)OCO4)NC(=O)NC2=O)c1=O` (racemic) [Compound I-65] was under 0.1 µM.
Take `Cc1cccn(CC2(c3ccc(C4CCCCC4)cc3)NC(=O)NC2=O)c1=O` (racemic) [Compound I-66]: the IC50 is under 0.1 µM.
Under `Cc1cccn(CC2(c3cccc(OC(F)(F)F)c3)NC(=O)NC2=O)c1=O` (racemic) [Compound I-67] stands under 0.1 µM; under `Cc1cccn(CC2(c3ccccc3OCc3ccccc3)NC(=O)NC2=O)c1=O` (racemic) [Compound I-68], at least 0.1 µM; under `COc1ccc(F)cc1C1(Cn2cccc(C)c2=O)NC(=O)NC1=O` (racemic) [Compound I-69], under 0.1 µM.
Under `COc1cc(C)c(Cl)cc1C1(Cn2cccc(C)c2=O)NC(=O)NC1=O` (racemic) [Compound I-70] stands at least 0.1 µM; under `Cc1cccn(CC2(c3cccc(C#CCN(C)C)c3)NC(=O)NC2=O)c1=O` (racemic) [Compound I-71], under 0.1 µM; under `COc1ccc(-c2ccc(C3(Cn4cccc(C)c4=O)NC(=O)NC3=O)cc2)cc1` (racemic) [Compound I-72], under 0.1 µM.
Under `COc1cccc(-c2ccc(C3(Cn4cccc(C)c4=O)NC(=O)NC3=O)cc2)c1` (racemic) [Compound I-73] stands under 0.1 µM; under `COc1ccccc1-c1ccc(C2(Cn3cccc(C)c3=O)NC(=O)NC2=O)cc1` (racemic) [Compound I-74], under 0.1 µM.
